Data set [1] has as its system Wistar rats. Further details: method as in earlier work. To be noted: 28-day oral; cited from earlier work.
In data set [2] the test system is Sprague Dawley rats. The note with it: rat, in vivo, po, 7.5 mg/kg.
Data set [3] has as its system Sprague Dawley rats. To be noted: rat, in vivo, po, 7.5 mg/kg. The source holds these as a separate data set.
For data set [4], the system named is Sprague Dawley rats. The note with it: rat, in vivo, po, 7.5 mg/kg. This is another data set of the same source.
In data set [5] the test system is Sprague Dawley rats. The note with it: rat, in vivo, 7.5 mg/kg.
Data set [6] deals with CHO-K1 cells. To be noted: with S9 (3 h), 25 μg/mL, positive control. Here is the method:
A chromosomal aberration test was performed to evaluate the potential for antrocin to induce structural chromosomal abnormalities in Chinese hamster ovary cells (CHO-K1 cells). The test followed the protocol in Genetic Toxicology Testing: A Laboratory Manual. CHO-K1 cells were obtained from the Bioresource Collection and Research Center (BCRC), and were cultured in Ham F-12 medium with 10% fetal bovine serum and 0.1% Penicillin–Streptomycin at 5% CO2 in a 37 °C incubator. […] Three experimental conditions were conducted: 3 h with and without S9 (short term), and 19 h without S9 (long term). […] CHO-K1 cells were cultured in 25T flasks, incubated with samples for 3 or 19 h with and without S9, and harvested at the time of 1.5 cell cycle lengths (about 21 h). Two hours before harvesting, 100 μL colcemid (10 μg/mL) was added to disrupt cell mitosis. Collected cells were then treated with 0.6% KCl solution and fixed with acetic acid–methanol (1:3) solution. After fixation, cells were stained with Diff-Quik on a glass slide. A total of 300 cells in metaphase per group were observed, and the number of chromosomal aberrations was recorded. The chromosomal aberration rate (%) was calculated using the following formula: (number of cells with aberrations/total number of cells examined) × 100. A Student’s t-test was used for statistical analysis, and a significant increase (p < 0.05) compared to the negative control indicated a positive response.

The test system of data set [7] is ICR male mice. The experiment in a line: In vivo mammalian erythrocyte micronucleus test. The note with it: for Mn-RETs/1000RETs (‰) / RETs/1000RBCs (‰): 60 mg/kg bw ip; for frequencies of micronuclei: positive control group (60 mg/kg ip).
In data set [8] the test system is Salmonella typhimurium TA1535. As to the kind of experiment: Antimutagenicity test, TA1535.
For data set [9], the system named is Salmonella typhimurium TA1537. As to the kind of experiment: Ames test (plate incorporation), TA1537. The note with it: TA1537, with S9, positive reagent 5 μg/plate. Background: The Ames test uses bacterial strains that need an amino acid and regain growth without it when mutated back.
The test system of data set [10] is Salmonella typhimurium TA1535. The experiment in a line: Ames test (plate incorporation), TA1535. To be noted: TA1535, with S9, positive reagent 5 μg/plate.
Data set [11] deals with Salmonella typhimurium TA102. As to the kind of experiment: Ames test (plate incorporation), TA102. The note with it: TA102, with S9, positive reagent 5 μg/plate.
The subject of data set [12] is Salmonella typhimurium TA98.
Data set [13] deals with Salmonella typhimurium TA100.
In data set [14] the test system is Salmonella typhimurium TA98. As to the kind of experiment: Ames test (plate incorporation), TA98. To be noted: TA98, with S9, positive reagent 5 μg/plate.
The mark [15] stands for this setting: female, Sprague Dawley, po, 28 days.
The mark [16] stands for this setting: male, Sprague Dawley, po, 28 days.

Consider 4 molecules from paper PMC10301922, “Anti-Oxidant, Anti-Mutagenic Activity and Safety Evaluation of Antrocin” (Toxics, 2023).

Where two headings read alike, the source gives them in different places.

In the case of `CNC(=O)c1cc(Oc2ccc(NC(=O)Nc3ccc(Cl)c(C(F)(F)F)c3)cc2)ccn1` [Sorafenib, sorafenib], the “dose above which abnormality was found (clinical observation, hematology, biochemistry, histopathology)” value in data set [1] is on record as “above 25 mg/kg”. Besides, in data set [2], the GGT is below 1 U/L and the TB is below 0.1 mg/dL. This molecule also had a BASO in [3] of 0.1 ± 0.1%. Further, in [4], the “Brain” value turned out to be 2.0 ± 0.1 g. In data set [5] (setting [15]), the “Adrenal gland: Congestion, cortex, focal, slight; incidence” value is on record as 1/5; the “Bone, femur: Hypertrophy, epiphysis, diffuse, slight to moderate/severe; incidence” value is 5/5; the “Kidney: Cast, tubule, focal, slight; incidence” value was 1/5; the “Kidney: Infarct, tubule, focal, slight; incidence” value was 1/5. The “Ovary: Increase, follicle, multifocal, moderate to moderate/severe; incidence” value in data set [5] (setting [15]) is 4/4. In [5] (setting [16]), the “Adrenal gland: Congestion, cortex, multifocal, slight; incidence” value is given as 1/5; the “Bone marrow, femur: Hypocellularity, diffuse, slight to moderate/severe; incidence” value is 3/5; the “Bone marrow, sternum: Hypocellularity, diffuse, moderate; incidence” value is 3/5; the “Bone, femur: Hypertrophy, epiphysis, diffuse, slight to moderate/severe; incidence” value is 5/5. Besides, in data set [5] (setting [16]), the “Epididymis: Granuloma, spermatic, focal, moderate; incidence” value is on record as 1/5; the “Heart: Infiltration, mononuclear cell, focal, minimal to slight; incidence” value is reported as 1/5; the “Kidney: Cast, tubule, focal, minimal; incidence” value is reported as 3/5; the “Spleen: Atrophy, red pulp, diffuse, slight to moderate; incidence” value is on record as 5/5. The “Salivary gland, Sublingual lobe: histopathological lesions” value in [5] was “-”. For the same molecule, in data set [5] (po), the “Aorta: histopathological lesions” value is on record as “-”, the “Cervix: histopathological lesions” value is reported as “-”, the “Coagulative gland: histopathological lesions” value is recorded as “-” and the “Esophagus: histopathological lesions” value was “-”. Besides, in data set [5] (po), the “Eyes: histopathological lesions” value was “-”; the “Harderian gland: Infiltration, mononuclear cell, focal, minimal; incidence” value was “-”; the “Harderian gland: histopathological lesions” value is “-”; the “Heart: histopathological lesions” value is “-”. In addition, in data set [5] (po), the “Intestine, large, Caecum: histopathological lesions” value is recorded as “-”; the “Intestine, large, Colon: histopathological lesions” value is on record as “-”; the “Intestine, large, Rectum: histopathological lesions” value is given as “-”; the “Intestine, small, Duodenum: histopathological lesions” value is given as “-”. In addition, in data set [5] (po), the “Intestine, small, Ileum: histopathological lesions” value was “-”; the “Intestine, small, Jejunum: histopathological lesions” value is reported as “-”; the “Kidney: Cyst, tubule, focal, slight; incidence” value is “-”; the “Liver: Fatty change, multifocal, slight; incidence” value was “-”. Moreover, in data set [5] (po), the “Liver: histopathological lesions” value is reported as “-”; the “Lung: histopathological lesions” value is given as “-”; the “Lymph node, Cervical: histopathological lesions” value is listed as “-”; the “Lymph node, Mesenteric: histopathological lesions” value is given as “-”. For the same molecule, in [5] (po), the “Lymph node: histopathological lesions” value is recorded as “-”, the “Mammary gland: histopathological lesions” value was “-”, the “Optic nerve: histopathological lesions” value was “-” and the “Oviduct: histopathological lesions” value is reported as “-”. In data set [5] (po), the “Pancreas: histopathological lesions” value was “-”; the “Parathyroid gland: histopathological lesions” value is listed as “-”; the “Pituitary: histopathological lesions” value is reported as “-”; the “Prostate gland: Infiltration, mononuclear cell, focal, minimal to slight; incidence” value is “-”. Moreover, in data set [5] (po), the “Salivary gland, Mandibular lobe: histopathological lesions” value was “-”; the “Salivary gland: histopathological lesions” value is “-”; the “Sciatic nerve: histopathological lesions” value is “-”; the “Seminal vesicle: histopathological lesions” value is on record as “-”. For the same molecule, in data set [5] (po), the “Skeletal muscle: histopathological lesions” value is reported as “-”, the “Skin: histopathological lesions” value was “-”, the “Spinal cord: histopathological lesions” value is recorded as “-” and the “Spleen: histopathological lesions” value is “-”. In addition, in data set [5] (po), the “Stomach: histopathological lesions” value is listed as “-”, the “Testis: histopathological lesions” value is “-”, the “Thymus: histopathological lesions” value is given as “-” and the “Thyroid gland: histopathological lesions” value is given as “-”. Further, in data set [5] (po), the “Tongue: histopathological lesions” value was “-”, the “Trachea: histopathological lesions” value is reported as “-”, the “Urinary bladder: histopathological lesions” value is “-” and the “Uterus: histopathological lesions” value is “-”. Besides, in data set [5] (po), the “Vagina: histopathological lesions” value was “-”.
As for `O=P1(N(CCCl)CCCl)NCCCO1` (stereo not drawn) [Cyclophosphamide, cyclophosphamide, reference compound], in data set [6], the “Frequency of Chromosomal Aberration (%)” value amounted to 15.3 ± 2.3% and the “Total Aberrations” value is listed as 46/300. Moreover, in [7] (48 h), the “Mn-RETs/1000RETs (‰)” value is recorded as 22.9 ± 12.2 ‰, the “RETs/1000RBCs (‰)” value was 3.6 ± 2.1 ‰ and the frequencies of micronuclei is listed as 3.6 ± 2.1 ‰. In [7] (72 h), the “Mn-RETs/1000RETs (‰)” value was 6.8 ± 3.7 ‰, the “RETs/1000RBCs (‰)” value is given as 3.9 ± 2.1 ‰ and the frequencies of micronuclei is 3.9 ± 2.1 ‰.
As to `Nc1ccc2cc3ccccc3cc2c1` [2-AA, 2-aminoanthracene, reference compound], the “reverse mutants, times more than the negative control group” value was “about 23 times” in [8] (TA1535, with S9, 25 μg/plate) and “about 275 times” in data set [12] (TA98, with S9, 25 μg/plate). The “Number of Revertant” value in data set [8] (TA1535, with S9, positive reagent alone 25 μg/plate) came to 270.3 ± 7.5 Colony/Plate; in data set [9], 269.0 ± 21.9 Colony/Plate; in data set [10] it was 535.0 ± 138.6 Colony/Plate; in data set [11] it was 1532.0 ± 204.2 Colony/Plate; in data set [12] (TA98, with S9, positive reagent alone 25 μg/plate), 6055.0 ± 661.0 Colony/Plate; in [13] (TA100, with S9, positive reagent 5 μg/plate), 2099.7 ± 145.5 Colony/Plate. Besides, the “Number of Revertant” value in data set [14] turned out to be 1881.3 ± 434.2 Colony/Plate.
For the molecule `[N-]=[N+]=[N-].[Na+]` [sodium azide, reference compound], in data set [8] (TA1535, without S9, 5 μg/plate), the “reverse mutants, times more than the negative control group” value was “about 122 times”. The “Number of Revertant” value in data set [8] (TA1535, without S9, positive reagent alone 5 μg/plate) was found to be 1313.0 ± 42.0 Colony/Plate; in [13] (TA100, without S9, positive reagent 5 μg/plate), 2223.0 ± 53.2 Colony/Plate.
